Numbers after ± are expanded uncertainties.
Conditions: relaxation calorimetry - Quantum Design PPMS; for molar entropy: 101.33 kPa

O=P([O-])([O-])OP(=O)([O-])[O-].O=P([O-])([O-])OP(=O)([O-])[O-].O=P([O-])([O-])OP(=O)([O-])[O-].[Fe+3].[Fe+3].[Fe+3].[Fe+3] [iron(III) diphosphate]
molar entropy (1 K, Crystal 3): 0.07578 ± 0.012 J/K/mol | molar entropy (2 K, Crystal 3): 0.1665 ± 0.026 J/K/mol | molar entropy (3 K, Crystal 3): 0.2869 ± 0.044 J/K/mol | molar entropy (4 K, Crystal 3): 0.4556 ± 0.07 J/K/mol | molar entropy (5 K, Crystal 3): 0.6947 ± 0.11 J/K/mol | molar entropy (6 K, Crystal 3): 1.027 ± 0.16 J/K/mol | molar entropy (7 K, Crystal 3): 1.472 ± 0.23 J/K/mol | molar entropy (8 K, Crystal 3): 2.047 ± 0.31 J/K/mol | molar entropy (9 K, Crystal 3): 2.754 ± 0.42 J/K/mol | molar entropy (10 K, Crystal 3): 3.591 ± 0.13 J/K/mol | molar entropy (11 K, Crystal 3): 4.553 ± 0.17 J/K/mol | molar entropy (12 K, Crystal 3): 5.629 ± 0.2 J/K/mol | molar entropy (13 K, Crystal 3): 6.809 ± 0.25 J/K/mol | molar entropy (14 K, Crystal 3): 8.084 ± 0.29 J/K/mol | molar entropy (15 K, Crystal 3): 9.437 ± 0.34 J/K/mol | molar entropy (16 K, Crystal 3): 10.86 ± 0.39 J/K/mol | molar entropy (17 K, Crystal 3): 12.36 ± 0.45 J/K/mol | molar entropy (18 K, Crystal 3): 13.92 ± 0.5 J/K/mol | molar entropy (19 K, Crystal 3): 15.55 ± 0.56 J/K/mol | molar entropy (20 K, Crystal 3): 17.25 ± 0.62 J/K/mol | molar entropy (25 K, Crystal 3): 26.52 ± 0.96 J/K/mol | molar entropy (30 K, Crystal 2): 36.76 ± 1.3 J/K/mol | molar entropy (35 K, Crystal 2): 47.46 ± 1.7 J/K/mol | molar entropy (40 K, Crystal 2): 59.06 ± 2.1 J/K/mol | molar entropy (45 K, Crystal 2): 71.73 ± 2.6 J/K/mol | molar entropy (50 K, Crystal 1): 84.46 ± 2.8 J/K/mol | molar entropy (55 K, Crystal 1): 93.95 ± 3.1 J/K/mol | molar entropy (60 K, Crystal 1): 103.22 ± 3.4 J/K/mol | molar entropy (65 K, Crystal 1): 112.55 ± 3.7 J/K/mol | molar entropy (70 K, Crystal 1): 121.98 ± 4 J/K/mol | molar entropy (75 K, Crystal 1): 131.56 ± 4.3 J/K/mol | molar entropy (80 K, Crystal 1): 141.27 ± 4.7 J/K/mol | molar entropy (85 K, Crystal 1): 151.12 ± 5 J/K/mol | molar entropy (90 K, Crystal 1): 161.1 ± 5.3 J/K/mol | molar entropy (95 K, Crystal 1): 171.2 ± 5.7 J/K/mol | molar entropy (100 K, Crystal 1): 181.43 ± 6 J/K/mol | molar entropy (110 K, Crystal 1): 202.07 ± 6.7 J/K/mol | molar entropy (120 K, Crystal 1): 222.81 ± 7.3 J/K/mol | molar entropy (130 K, Crystal 1): 243.5 ± 8 J/K/mol | molar entropy (140 K, Crystal 1): 264.06 ± 8.7 J/K/mol | molar entropy (150 K, Crystal 1): 284.46 ± 9.4 J/K/mol | molar entropy (160 K, Crystal 1): 304.66 ± 10 J/K/mol | molar entropy (170 K, Crystal 1): 324.67 ± 11 J/K/mol | molar entropy (180 K, Crystal 1): 344.47 ± 11 J/K/mol | molar entropy (190 K, Crystal 1): 364.05 ± 12 J/K/mol | molar entropy (200 K, Crystal 1): 383.42 ± 13 J/K/mol | molar entropy (210 K, Crystal 1): 402.56 ± 13 J/K/mol | molar entropy (220 K, Crystal 1): 421.48 ± 14 J/K/mol | molar entropy (230 K, Crystal 1): 440.17 ± 15 J/K/mol | molar entropy (240 K, Crystal 1): 458.61 ± 15 J/K/mol | molar entropy (250 K, Crystal 1): 476.82 ± 16 J/K/mol | molar entropy (260 K, Crystal 1): 494.79 ± 16 J/K/mol | molar entropy (270 K, Crystal 1): 512.5 ± 17 J/K/mol | molar entropy (273.15 K, Crystal 1): 518.03 ± 17 J/K/mol | molar entropy (280 K, Crystal 1): 529.97 ± 17 J/K/mol | molar entropy (290 K, Crystal 1): 547.19 ± 18 J/K/mol | molar entropy (298.15 K, Crystal 1): 561.03 ± 19 J/K/mol | molar entropy (300 K, Crystal 1): 564.15 ± 19 J/K/mol | Triple point temperature (Crystal 2): 47.6 ± 0.1 K | Triple point temperature (Crystal 3): 27.3 ± 0.2 K
